US6294568A, “5-arylpyrrole derivatives” (priority 1997, dated 2001)
Like-named read-outs stand apart in the source and are kept apart here. Blank lines part the entries; values can stand above or below the compound they belong to.

Tests used:
[1] = test system: pain threshold of brewer's yeast inflamed hind paw; test: Analgesic Action Test (Randall et al.); format: in vivo, SD rats; conditions: 3 mg/kg
Description: SD rats (6 rats per group) fasted overnight were employed for the test. After the measurement of pain threshold values of the left and right hind paws twice using an analgesimeter, the rats were injected subcutaneously with 0.1 ml of 20% brewer's yeast solution at the plantar area of the right hind paw to elicit inflammation. Two hours after the elicitation of inflammation, the pain threshold values of the left and right hind paws were measured and, immediately after the measurement, the test samples were administered orally to the rats. Three hours after the administration, the pain threshold values of the left and right hind paws were measured. […] The dosage amount of each of the test samples was 3 mg/kg.
Pain threshold value rising rate (%)=((pain threshold value of 3 hours after drug administration-pain threshold value of 2 hours after yeast administration)/(pain threshold value before yeast administration-pain threshold value of 2 hours after yeast administration))×100
Pain threshold value fluctuation rate (%)=(1 -(pain threshold value of 3 hours after drug administration/pain threshold value of 2 hours after […]

[2] = test system: Brewer's Yeast Fever; test: Antipyretic Action Test With Respect To Brewer's Yeast Fever; format: in vivo, rats
Description: The antipyretic action was measured as described in the following. A sensor was inserted into the rectum of each rats and the body temperature of one hour after the insertion was recorded as the basal body temperature. The rats were injected subcutaneously with 2 ml/body of 20% brewer's yeast at the region of back and, 18 hours after the injection, the intrafebrile body temperatures were measured. Rats who had shown not less than 0.75° C. of body temperature elevation were selected to whom the test samples was administered orally. The body temperatures of the selected rats were measured every one hour for the following 5 hours. The dosage of each of the test samples was 10 mg/kg.

[3] = test system: Sarcoma 180 solid tumor; test: Antitumor Effect with respect to Sarcoma 180 Solid Tumor Mouse; format: in vivo, ICR mice; conditions: 10 mg/kg in abdominal cavity, 10 days; day 11
Description: The antitumor effect test was conducted according to the method of the U. S. National Cancer Institute (NCI) (Cancer Chemotherapy Reports part 3, Vol. 3, 1 (1978)). Cell suspension of Sarcoma 180 cells (mouse sarcoma virus) which was employed as the tumor cell strain for transplant was prepared by diluting the cells in the Hank's solution at 2×10^7 cells/ml concentration ([…]), and ICR mice (10 mice per group) aged 5 weeks were injected subcutaneously with 0.2 ml of the cell suspension at the region of the back. Setting the day of the tumor transplantation as day 0. the mice were administered in the abdominal cavity with the compounds of the invention (Preparation Examples 1 and 37), 5-fluorouracyl, and the solution as the control for 10 days consecutively from day 1. On day 11, the mice were sacrificed, and portions of the solid tumor were removed so that weights thereof were measured. The dosage of each of the test samples was 10 mg/kg.

[4] = test system: CaCo-2 cells; test: Cytostatic Action Test on Various Cells (XTT method); format: cell-based; conditions: for IC50: Homo sapiens, read-out: Cytostatic rate (IC50)
Description: The cytostatic measurement of the various cancer cells were conducted according to the method of the U.S. National Cancer Institute (NCI). Adhesive cells such as CaCo-2 and HepG2 were adjusted in each of the specified culture mediums at 0.5×10^5 cells/ml concentration and pipetted into a 96 well-plate (Costar3695) in an amount of 100 μl/well. The cells were cultured under the conditions of at 37° C. in 5% CO2 atmosphere for 24 hours to allow the cell adhesion, and then the numbers of each of the cells were determined by the XTT method to be recorded as the cell number of day 0 (C0days). After that, only the medium solutions were exchanged in the control groups, and culture mediums each containing the test samples adjusted to each of the specified concentrations were exchanged In the test sample dispensing groups, then the cells were cultured under the conditions of at 37° C. in 5% CO2 atmosphere for 72 hours. The numbers of each of the cells were determined by the XTT method to be recorded as the cell number of day 3 (C3days). Further, only the medium solutions were pipetted into the control groups and the test sample administration groups were adjusted to 5×10^5 cells/ml concentrations in each of the specified culture mediums containing the test samples adjusted to each of the specified concentrations, then pipetted into a 96 well-plate (Costar3695) in an amount of 100 μl/well. The cells were cultured under the condition of at 37° C. in 5% CO2 atmosphere for 72 hours, and the number of each of the cells (T3days) were determined in the same manner.
Cell proliferation rate (%) with respect to control groups=[(T3days
-C0days)/(C3days -C0days)]×100 Formula: 5

[5] = test system: adjuvant arthritis; test: Rat Adjuvant Arthritis Test; format: in vivo, SD rats; conditions: 3 mg/kg, oral
Description: SD rats were injected subcutaneously with […] liquid paraffin/rat of H-37RA strain in the plantar area of the right hind paw. Only liquid paraffin (0.05 ml) was administered to control groups in the same manner. 21 days after the administration, rats showing the evidence of arthritis were selected and divided into groups having equal mean left and right hind paw volumes, and also having equal arthritis scores. From the date of the grouping, the test samples were administered orally to the rats once daily for 7 days (only the solvent was administered to the negative and positive control groups). The degree of the arthritis was quantitatively evaluated by measuring the volumes of the left and right hind paws by using a volume meter (manufactured by Muromachi Kikai) and by scoring the degree of arthritis by macroscopic observation as illustrated in Table 2. According to the scoring criteria in Table 2, 15 is a perfect score.
The dosage of each of the test samples was 3 mg/kg.

[6] = test system: carrageenan footedema; test: Carrageenan Footedema Suppression Test; format: in vivo, SD rats; conditions: oral; paw volume three hours after carrageenan administration
Description: The carrageenin footedema suppression test was conducted according to the method of Winter et al. (J. Pharm. Exp. Ther., Vol.141, 369 (1963)). The test samples suspended in Tween 80 were administered orally to SD rats (6 rats per 1 group) in an amount of 1 ml per 100 g of the body weight, while only the solvent was administered in the same manner as above as a control. One hour after the administration, 1% carrageenan physiological saline was injected subcutaneously to the rats in the plantar area of the right hind paw. Three hours after the carrageenan administration, the paw volumes were measured and the edematization rate (%) was calculated with Formula 1 and then edematization suppression rate (%) was calculated with Formula 2.
Edematization rate (%)=((paw volume after carrageenan injection- paw volume before carrageenan injection)/(paw volume before carrageenan injection)×100 Formula: 1
Edematization suppression rate (%)=((edematization rate of control-
edematization rate of test samples)/edematization rate of […]

[7] = target: T1, Human COX-2 (Homo sapiens, UniProt P35354); test: Human COX-2 Inhibitory Activity Test (LPS-induced PGE2 in blood); format: cell-based
T1 construct: endogenous in cells; host or cells: heparinised whole blood of a healthy human donor pretreated with aspirin, stimulated with LPS (own knowledge: COX-2 is induced in monocytes)
T1 sequence (P35354 18-604): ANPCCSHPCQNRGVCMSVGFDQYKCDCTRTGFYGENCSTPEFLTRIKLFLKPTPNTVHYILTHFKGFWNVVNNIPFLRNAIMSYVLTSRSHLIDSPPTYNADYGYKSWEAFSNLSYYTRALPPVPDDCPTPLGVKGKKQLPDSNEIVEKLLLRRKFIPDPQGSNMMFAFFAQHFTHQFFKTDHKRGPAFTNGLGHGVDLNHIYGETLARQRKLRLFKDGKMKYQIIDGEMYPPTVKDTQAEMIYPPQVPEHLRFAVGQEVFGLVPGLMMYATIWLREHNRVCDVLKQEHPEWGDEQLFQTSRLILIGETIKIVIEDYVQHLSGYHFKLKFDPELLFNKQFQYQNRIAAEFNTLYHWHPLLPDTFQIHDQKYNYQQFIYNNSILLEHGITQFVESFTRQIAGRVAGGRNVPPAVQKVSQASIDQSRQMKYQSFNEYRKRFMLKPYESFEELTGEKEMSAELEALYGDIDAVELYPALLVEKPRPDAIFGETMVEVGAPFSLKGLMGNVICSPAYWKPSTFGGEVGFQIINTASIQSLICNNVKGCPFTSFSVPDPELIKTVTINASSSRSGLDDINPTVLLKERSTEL
Description: COX-1 and COX-2 activities were measured according to the method of Patrignani et al. (J. Pharm. Exp. Ther. Vol. 271, 1705 (1994)).
(2) COX-2 activity was measured in the following procedure. To blood collected from a healthy normal who had taken 330 mg of aspirin 48 hours before the blood collection in order to inhibit the COX-1 activity, 10 unit/ml of sodium heparin was added, and then pipetted into glass test tubes by 1 ml. 10 μg/ml of Lipopolysaccharide (LPS) was added thereto and the plasma obtained by the specified operation was stored at -40° C. until the measurement for the amount of prostaglandin E2 (PGE2). Test samples containing the test samples were treated in the same manner of operation as described above.
(4) The measurement for the PGE2 content was conducted in the following procedure. In a part of 96 well plate coated with goat anti-mouse antibody, 2 wells were alloted respectively to a blank well, Non-specific Binding (NSB) well, Maximum Binding (B0) well, standard wells at seven concentrations of PGE2 (1000 pg/ml) in doubling dilution ranging from 1000-15.6 pg/ml. The rest of the wells were used for the sample measurement. EIA buffer was added to the NSB wells (100 μl) and to the B0 wells (50 μl), respectively. 50 μl of each of the standard dilution was added in an order from thinner to thicker concentrations. Each of the samples was added to the rest of the wells in an amount of 50 μl. Then, 50 μl of PGE2 tracer was added to each of the wells except for blank wells. Further, 50 μl PGE2 monoclonal antibody was added to each of the wells except for the NSB wells and blank wells, then the well plate was covered with a plastic film and the reaction continued at room temperature for 18 hours. When the reaction was terminated, the wells were washed 5 times with a wash buffer. 200 μl of Elman's reagent was added to each of the wells, and then the well plate was covered with a plastic film and developed for 60 minutes in a dark place. The absorbance at 405 nm was measured by an Immuno Reader (NJ-2000, manufactured by Nippon Intermed Co., Ltd.). From the measurement result, %B/B0 was calculated and, applying it to the approximation formula of Hill Plot, the concentration of the samples was determined to be 40 times concentration. The dilution was conducted with an EIA buffer throughout the Test Example 3.

Structure (SMILES): CS(=O)(=O)Nc1ccc([N+](=O)[O-])cc1OC1CCCCC1 [Control Compound (c), N-(2-cyclohexyloxy-4-nitrophenyl)methanesulfonamido, reference compound]
- threshold value fluctuation, non-inflammatory paw [1]: exerted no influence on the threshold value fluctuation with respect to the non-inflammatory paw in the same manner as control compound (c)
- Pain Threshold Value Fluctuation Rate ([1]; po, 3 h): -1.46%
- Pain Threshold Value Rising Rate ([1]; po, 3 h): 24.0%
- Body temperature 1 Hour After ([2]; 10 mg/kg oral, 1 hour after): 37.67 °C
- Body temperature 3 Hours After ([2]; 10 mg/kg oral, 3 hours after): 37.04 °C
- Body temperature 5 Hours After ([2]; 10 mg/kg oral, 5 hours after): 37.12 °C
- Intrafebrile Body Temperature ([2]; 18 hours after yeast injection, before administration, 10 mg/kg group): 38.89 °C
- Basal Body Temperature ([2]; one hour after sensor insertion, before yeast, 10 mg/kg group): 37.41 °C

Structure (SMILES): O=c1[nH]cc(F)c(=O)[nH]1 [5-fluorouracil, reference compound]
- Tumor Weight [3]: 0.930 g
- IC50 ([4]; Caco-2, 72 h): 3300 nM

Structure (SMILES): COc1ccc2c(c1)c(CC(=O)O)c(C)n2C(=O)c1ccc(Cl)cc1 [Indomethacin, reference compound]
- Right Hind Paw Volume day 21 ([5]; day 21 (starting date of administration), once daily): 3.88 mL
- Right Hind Paw Volume day 27 ([5]; day 27, once daily for 7 days): 2.69 mL

- IC50 ([4]; CaCo-2, 72 hours, XTT method): 950 nM
- IC50 ([7]; human blood, LPS, PGE2, IC50 from Hill Plot): 140 nM
- COX-1/COX-2 ([7]; ratio of IC50 COX-1 to COX-2): > 714
Structure (SMILES): Cc1cc(-c2ccc3c(ccn3C)c2)c(-c2ccc(S(C)(=O)=O)cc2)[nH]1 [Preparation Example 37, 4-(5-N-methylindolyl)-2-methyl-5-(4-methylsulfonylphenyl)-1H-pyrrole]
- Tumor Weight [3]: 0.906 g
- Edematization Suppression rate [6]: 26.5%
- cytostatic action ([4]; CaCo-2 cells, colon cancer cells): demonstrated a cytostatic action with respect to CaCo-2 cells
